Experimental data as given in patent US7972849B2, “Primate pluripotent stem cells produced by somatic cell nuclear transfer” (Oregon Health & Science University, priority 2007, dated 2011).
Where a SMILES comes first, the peptide text is derived from it. The star is where a group is joined. Cbz = O=C(OCc1ccccc1)*

Key:
Format in all cases: cell-based, rhesus monkey
monkey oocytes [1] = experiment: Inhibition of 1st polar body extrusion in monkey oocytes during the MI-MII transition; details: for # Matured after exposure / # Matured during exposure: exposure time 4 hours, MI oocytes, N=5
monkey oocytes [2] = experiment: In vitro development following fertilization by ICSI of oocytes exposed to MG-132; details: 4 hours, MI oocytes, after ICSI
Method: Fertilization by ICSI and culture conditions for TSCs was performed as described previously (Wolf, Thormahlen et al. 2004). After ICSI, injected oocytes were placed in 4-well dishes (Nalge Nunc International Co., Naperville, Ill.) containing protein-free HECM-9 medium and cultured at 37° C. in 6% CO2, 5% O2 and 89% N2. Cultures were maintained under paraffin oil. SCNT-derived TSCs at the 8-cell stage were transferred to fresh plates of HECM-9 medium supplemented with 5% fetal bovine serum (FBS; HyClone, Logan, Utah) and cultured to the blastocyst stage with the medium changed every other day.
Failure to induce nuclear remodeling could reflect either inherently low MPF levels in MII oocytes recovered from ovarian stimulation protocols or loss of MPF resulting from premature oocyte activation during manipulation. In order to evaluate the first possibility, nuclear donor cells were fused with intact (non-enucleated) MII oocytes (n=13). […] To test the hypothesis that failed nuclear remodeling reflects premature activation caused by the SCNT procedures and decline in MPF activity mediated by the proteasome system, proteasome catalytic activity was inhibited with MG-132 (Josefsberg et al., Biol Reprod 62(5): 1270-7, 2000; Zhou et al., Science 302(5648): 117 2003).

monkey SCNT embryos [3] = experiment: Nuclear remodeling (lamin A/C immunostaining, chromatin condensation) in reconstructed SCNT embryos; details: for occurrence of remodeling events in the donor nucleus: when used in the SCNT protocols disclosed
Method: Monkey oocytes and SCNT-derived totipotent cells were fixed in 4% paraformaldehyde for 20 min. After permeabilization with 0.2% Triton X-100 and 0.1% Tween-20, non-specific reactions were blocked with 10% normal goat serum (Jackson ImmunoResearch Laboratories, Inc., West Grove, Pa.). SCNT-derived totipotent cells were then incubated for 40 min in mouse monoclonal antibody against Oct-4 (POU5F1) or lamin A/C (1:200; Santa Cruz Biotechnology, Inc., Santa Cruz, Calif.). After extensive washing, SCNT-derived totipotent cells were exposed to affinity-purified goat anti-mouse, secondary antibody conjugated with indocarbocyanine (Cy3, 1:200; Jackson ImmunoResearch). SCNT-derived totipotent cells were then co-stained with 2 μg/ml of 4′, 6-diamidino-2-phenylindole (DAPI) for 10 min, whole-mounted onto slides and examined under epifluorescence microscopy.
Mature MII oocytes were exposed to 5 μM MG-132 immediately after retrieval and maintained in this inhibitor throughout enucleation and somatic donor cell fusion procedures.
Monkey oocytes are particularly vulnerable to premature activation and MPF degradation during in vitro manipulations, a likely characteristic of primates but with potential relevance to SCNT success in other mammals.

monkey SCNT embryos [4] = experiment: Blastocyst development of monkey SCNT embryos produced by electrofusion
Source text: Alternatively, donor cell nuclear transfer was accomplished by electrofusion. Electrofusion procedures were similar to the conventional protocols described previously (Mitalipov, Yeoman et al. 2002; Mitalipov, Kuo et al. 2003) with the exception that calcium acetates were removed from the fusion buffer. A disaggregated donor cell was aspirated into a micropipette and transferred into the perivitelline space of the cytoplast. Cell fusion was induced by two 50 μsec DC pulses of 2.7 kV/cm (Electro Square Porator T-820, BTX, Inc., San Diego, Calif.) in 0.25 M D-sorbitol buffer containing 0.5 mM Hepes and 1 mg/ml fatty acid-free BSA. Successful fusion was confirmed visually 20-30 min after electroporation by the disappearance of the donor cell in the perivitelline space.
Reconstructed embryos were activated 2 hours after fusion by exposure by exposure to […] ionomycin (CalBiochem, San Diego, Calif.) for 5 min in TALP/HEPES medium supplemented with 1 mg/ml BSA and then transferred for 5 min in TALP/HEPES medium supplemented with 30 mg/ml BSA and 2 mM 6-dimethylaminopurine followed by a 5 h incubation in HECM-9 medium containing 2 mM 6-dimethylaminopurine at 37° C. in 5% CO2, 5% O2 and 90% N2. Activated SCNT embryos were placed in HECM-9 medium and cultured as described above.

CC(C)C[C@@H](C=O)NC(=O)[C@H](CC(C)C)NC(=O)[C@H](CC(C)C)NC(=O)OCc1ccccc1 [MG-132] (Cbz-Leu-Leu-Leu-aldehyde)
# Matured after exposure (monkey oocytes [1]; MG-132 0.5 μM): 1 | # Matured during exposure (monkey oocytes [1]; MG-132 0.5 μM): 3 | # Matured after exposure (monkey oocytes [1]; MG-132 2 μM): 3 | # Matured during exposure (monkey oocytes [1]; MG-132 2 μM): 2 | # Matured after exposure (monkey oocytes [1]; MG-132 5 μM): 4 | # Matured during exposure (monkey oocytes [1]; MG-132 5 μM): 0 | inhibition of first polar body extrusion during the MI to MII transition (monkey oocytes [1]; MG-132 at 5 μM, pilot study): efficient in inhibiting first polar body extrusion | # 8-cell (monkey oocytes [2]; MG-132 0.5 μM): 3 | # Blastocyst (monkey oocytes [2]; MG-132 0.5 μM): 3 | # Morula (monkey oocytes [2]; MG-132 0.5 μM): 3 | # 8-cell (monkey oocytes [2]; MG-132 2 μM): 2 | # Blastocyst (monkey oocytes [2]; MG-132 2 μM): 0 | # Morula (monkey oocytes [2]; MG-132 2 μM): 0 | # 8-cell (monkey oocytes [2]; MG-132 5 μM): 1 | # Blastocyst (monkey oocytes [2]; MG-132 5 μM): 0 | # Morula (monkey oocytes [2]; MG-132 5 μM): 0 | nuclear remodeling of reconstructed embryos, by 4 hours after fusion (monkey SCNT embryos [3]; 5 μM MG-132 from retrieval throughout enucleation and fusion, by 4 hours): clear evidence of nuclear remodeling | nuclear remodeling of reconstructed embryos, 1 hour after fusion (monkey SCNT embryos [3]; 5 μM MG-132 from retrieval throughout enucleation and fusion, sampled 1 hour after fusion): slight chromatin condensation and moderate lamin A/C staining | MPF activity in monkey cytoplasts (monkey SCNT embryos [3]; MG-132 exposure at the higher concentration (5 μM)): preserved MPF activity | occurrence of remodeling events in the donor nucleus (monkey SCNT embryos [3]): increased the occurrence of remodeling events in the donor nucleus

Cn1c(=O)c2c(ncn2C)n(C)c1=O [caffeine]
occurrence of remodeling events in the donor nucleus (monkey SCNT embryos [3]): increased the occurrence of remodeling events in the donor nucleus | time at which SCNT embryos reached the blastocyst stage (monkey SCNT embryos [4]; 2.5 mM caffeine for 2 hours immediately after electrofusion): ≤ 8 days | # Blastocysts forming by day 12 (monkey SCNT embryos [4]; SCNT plus caffeine, 2.5 mM for 2 hours after electrofusion): 0 | # Blastocysts forming by day 8 (monkey SCNT embryos [4]; SCNT plus caffeine, 2.5 mM for 2 hours after electrofusion, count): 4 | Blastocysts forming by day 8 (%) (monkey SCNT embryos [4]; SCNT plus caffeine, 2.5 mM for 2 hours after electrofusion, percentage): 31% | # cleaved (monkey SCNT embryos [4]; SCNT plus caffeine, 2.5 mM for 2 hours immediately after electrofusion, N=19): 13
